Source: patent US6057371A, “Sigma receptor ligands and the use thereof” (Virginia Commonwealth University, priority 1992, dated 2000)
Where a name gives a salt, the structure may show the parent alone. Read-outs that look alike come from different tables or passages of the source.

Legend:
[1] = target: T1, 5-HT1A receptor (Rattus norvegicus, UniProt P19327); assay: biochemical; format: binding; design: 47: 529-540 (1986); from tissue; host or cells: brain tissue, inferred from the cited method (rat frontal cortex)
T1 sequence (P19327 1-422): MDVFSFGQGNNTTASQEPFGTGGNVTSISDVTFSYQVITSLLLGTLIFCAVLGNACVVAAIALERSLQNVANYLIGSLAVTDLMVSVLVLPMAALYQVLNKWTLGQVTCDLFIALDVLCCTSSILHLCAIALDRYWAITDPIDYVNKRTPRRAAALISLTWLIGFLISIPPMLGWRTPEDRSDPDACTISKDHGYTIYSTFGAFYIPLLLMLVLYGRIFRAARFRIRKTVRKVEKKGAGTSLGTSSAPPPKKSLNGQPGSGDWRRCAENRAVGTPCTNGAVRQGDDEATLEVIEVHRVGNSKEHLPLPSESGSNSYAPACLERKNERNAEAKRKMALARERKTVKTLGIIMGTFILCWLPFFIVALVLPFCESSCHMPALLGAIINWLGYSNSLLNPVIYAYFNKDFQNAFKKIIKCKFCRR
Description: (§1) Further sigma receptor binding assays against [^3 H]DTG and 5HT-1A binding assays were conducted according to the procedure outlined in the previous examples.

[2] = target: sigma receptor; assay: Sigma receptor binding, [^3 H]DTG, brain membranes (both sigma-1 and sigma-2 sites); design: species or system guinea pig; conditions: for IC50: Table 6, [^3 H]DTG; for Ki: running text, Examples 5 and 6, read-out: sigma receptor Ki
Description: Sigma receptor binding assays using guinea pig brain membrane homogenates and the radioligand [^3 H]DTG were conducted as described by Weber et al.. […] Briefly, frozen whole guinea-pig brains (Biotrol, Indianapolis, Ind.) were homogenized in 10 volumes (w/v) of ice-cold 320 mM sucrose using a Brinkman polytron. The homogenate was centrifuged at 1,000× g for 20 minutes at 4° C. The supernatant was centrifuged at 20,000× g for 20 minutes at 4° C. The resulting pellet was resuspended in 10 initial volumes of 50 mM Tris/HCl buffer at pH 7.4 and centrifuged at 20,000× g for 20 minutes at 4° C. The resulting pellet was resuspended in 5 initial volumes ice-cold 50 mM Tris/Hcl […], and the final volume was adjusted to yield a protein concentration of 3 mg/ml. Aliquots of 20-ml were stored at -70° C. until used, with no detectable loss of binding.
The protein concentration in the 1-ml final incubation volume was 800 ug/ml, corresponding to 32 mg of brain tissue (original wet weight) and to a tissue concentration within the linear range for specific binding. […] Incubations were terminated after 90 minutes at room temperature by addition of 4 ml of ice-cold 50 mM Tris/HCl (pH 7.4) and rapid filtration of the membrane suspension through Whatman GF/B glass-fiber filters under vacuum, using a 48-well cell harvester (Brandel). The filters were washed 2 times with 4 ml of 50 mM Tris/HCl (pH 7.4). Each filter was suspended in 10 ml Cytoscint (ICI), and radioactivity was measured by liquid scintillation spectrometry at a counting efficiency of approximately 50%. IC50 values were determined by non-linear regression analyis.
as §1
Radioligand Binding. […] Briefly, membranes (P2 microsomal fraction) were diluted 1:3 with 50 mM Tris HCl (pH 7.4) and 0.4 mL was combined with 50 μL [^3 H]DTG (1-2 nM final concentration) and 50 μL of competing drug or buffer. After 90 min at room temperature, incubation was terminated by rapid filtration under vacuum through Whatman GF/B glass fiber filters using a Brandel 48-well cell harvester. Filters were washed three times with 5 mL of cold Tris HCl buffer and each filter was suspended in 5 mL of Cytoscint (ICN Biomedical). Radioactivity was measured by liquid scintillation spectrometry at a counting efficiency of 50%.

[3] = target: T2, sigma-1 binding site (Cavia porcellus, UniProt Q60492); assay: biochemical; design: species or system guinea pig; conditions: for sigma-2/sigma-1 selectivity: Example 8
T2 construct: Guinea pig whole membrane preparations (P2 microsomal fraction); from tissue; host or cells: guinea pig membranes (P2 microsomal fraction), as described by Weber et al; brain inferred from the sister test b489
T2 sequence (Q60492 whole entry): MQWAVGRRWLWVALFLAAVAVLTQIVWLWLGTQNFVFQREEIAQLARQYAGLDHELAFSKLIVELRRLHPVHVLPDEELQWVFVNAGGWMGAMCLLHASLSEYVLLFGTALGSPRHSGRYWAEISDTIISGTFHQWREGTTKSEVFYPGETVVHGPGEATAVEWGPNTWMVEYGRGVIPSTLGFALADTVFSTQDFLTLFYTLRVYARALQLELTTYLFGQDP
Description: [^3 H]DTG was purchased from DuPont/NEN.
The radioactivity on the filters was determined by scintillation spectrometry at an efficiency of about 50% using Cytoscint (ICN) scintillation fluid.

[4] = target: T3, sigma-2 binding site (Cavia porcellus, UniProt H0V073); assay: biochemical; design: species or system guinea pig
T3 construct: Guinea pig whole membrane preparations (P2 microsomal fraction); from tissue; host or cells: guinea pig membranes (P2 microsomal fraction), as described by Weber et al; brain inferred from the sister test b489
T3 sequence (H0V073 1-176): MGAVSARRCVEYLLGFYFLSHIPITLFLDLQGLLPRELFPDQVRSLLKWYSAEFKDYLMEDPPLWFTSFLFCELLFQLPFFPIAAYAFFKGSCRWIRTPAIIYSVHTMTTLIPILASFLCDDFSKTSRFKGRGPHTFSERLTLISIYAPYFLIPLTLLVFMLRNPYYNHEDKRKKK
Description: For the standard equilibrium assay, the mixtures were incubated for 30 min. at room temperature, then filtered and the radioactivity determined as described above.

[5] = Table 6, read-out: 5HT-1A (nM) MEAN
[6] = SIGMA-1 KI vs. 3H-PENTAZOCINE MEAN
[7] = SIGMA-2 KI vs. 3H-DTG + PENTAZOCINE MEAN
[8] = Table 10, read-out: SIGMA-1 KI vs. 3H-PENTAZOCINE MEAN
[9] = less than about 0.1, see Table 10
[10] = Table 10, read-out: SIGMA-2 KI vs. 3H-DTG + PENTAZOCINE MEAN

| SMILES | IC50 [1, 5] [nM] | IC50 [2] [nM] | Ki [4, 7] [nM] | other results |
| --- | --- | --- | --- | --- |
| c1ccc(CCCNCCCC2CCCCC2)cc1 [Compound 92, N-(3-Cyclohexylpropyl)-3-phenylpropylamine Hydrochloride] | 26.3 | 2.99 | – | Ki [2]: 2.4 nM |
| CCCc1ccc(CC(C)NCCCc2ccccc2)cc1 (stereo not drawn) [Compound 84] | 168 | 6.43 | – | – |
| O=C1c2ccccc2C(=O)N1CCCCCN1CCN(c2ccccc2)CC1 [Compound 98] | 2.23 | 6.18 | – | – |
| CCCN1CCC[C@@H](c2cccc(O)c2)C1 [(-)3-PPP, reference compound] | – | – | 1260 | Ki [3, 6]: 312 nM; S1/S2 Ratio ([3]; Table 11, sigma-1/sigma-2): 0.248 |
| CC(C)=CCN(C)[C@@H](C)Cc1ccccc1 [Compound 114] | 34000 | 6.71 | – | – |
| CC(C)CCN(C)[C@@H](C)Cc1ccccc1 [Compound 115] | 20000 | 3.04 | – | – |
| CN(C)CCCCCc1ccccc1 [Compound 125, N,N-Dimethyl-5-phenylpentylamine] | – | 38.8 | – | Ki [2]: 35 nM; sigma-2/sigma-1 selectivity [3]: 96; Ki [3, 8]: 10.4 nM; S1/S2 Ratio ([3]; Table 10, sigma-1/sigma-2): 0.011; IC50 ratio of sigma-1/sigma-2 (sigma-1 selective compounds) [3, 9]: less than 0.1; Ki [4, 10]: 965 nM |
| NCCCCCC1CCCCC1.O=C(O)C(=O)O [Compound 126, 5-Cyclohexylpentylamine Hydrogen Oxalate] | – | 219 | – | Ki [2]: 200 nM; sigma-2/sigma-1 selectivity [3]: 13; Ki [3, 8]: 191 nM; S1/S2 Ratio ([3]; Table 10, sigma-1/sigma-2): 0.075; IC50 ([3]; Table 16, read-out: Sigma-1 IC50): 190 nM; IC50 ratio of sigma-1/sigma-2 (sigma-1 selective compounds) [3, 9]: less than 0.1; Ki [4, 10]: 2550 nM |
| CN(C)CCCN1c2ccccc2Sc2ccc(Cl)cc21 [Chlorpromazine, reference compound] | – | – | 714 | Ki [3, 6]: 336 nM; S1/S2 Ratio ([3]; Table 11, sigma-1/sigma-2): 0.471 |
| CN1CCN(CC/C=C\c2ccccc2)CC1 [Compound 104, N-(4-phenyl-3(Z)-butenyl)-N'-methylpiperazine] | – | 76.2 | – | IC50 ratio of sigma-1/sigma-2 (sigma-1 selective compounds) [3]: less than 0.1; Ki ([3]; SIGMA-1 KI vs. 3H-P[…]): 28.7 nM; S1/S2 Ratio ([3]; guinea pig, microsomes): 0.022; Ki [4, 10]: 1310 nM |
| c1ccc(CCCCN2CCC(c3ccccc3)CC2)cc1 [Compound 81] | 43.9 | 0.88 | – | – |
| COc1ccc2c(c1)[C@]13CCCC[C@@H]1[C@H](C2)N(C)CC3 [Dextromethorphan, reference compound] | – | – | 15000 | Ki ([3]; SIGMA-1 KI vs. 3H-P[…]): 522 nM; S1/S2 Ratio ([3]; guinea pig, microsomes): 0.035 |
| Clc1ccc(N2CCN(CCCc3ccccc3)CC2)cc1 [Compound 78] | 98.4 | 3.01 | – | – |
| c1ccc(CCCNC2CCCc3ccccc3C2)cc1 (stereo not drawn) [Compound 67] | 19.3 | 59.6 | – | – |
| COc1cc(CC(C)NCCCCc2ccccc2)c(OC)cc1Br (stereo not drawn) [Compound 66] | 272 | 45.1 | – | – |
| c1ccc(CCCCCN2CCC(c3ccccc3)CC2)cc1 [Compound 82] | 136 | 0.96 | – | – |
| OC1(Cc2ccccc2)CCN(CCCCCc2ccccc2)CC1 [Compound 118] | 1970 | 2.14 | – | – |
| c1ccc(CCCCCCNCCCc2ccccc2)cc1 [Compound 110] | 117 | 3.62 | – | – |
| CC(C)(C)[C@@]1(O)CCN2C[C@@H]3c4ccccc4CCc4cccc(c43)[C@H]2C1 [(-)Butaclamol, reference compound] | – | – | 3420 | – |
| c1ccc(CCCCNCCCCc2ccccc2)cc1 [Compound 73] | 55.7 | 6.98 | – | – |

| SMILES | IC50 [1, 5] [nM] | IC50 [2] [nM] | Ki [4, 7] [nM] | other results |
| --- | --- | --- | --- | --- |
| COc1ccc(OC)c(CC(C)NCCCCc2ccccc2)c1 (stereo not drawn) [Compound 65] | 182 | 72.9 | – | – |
| C[C@@H](Cc1ccccc1)N(C)CCCc1ccc2ccccc2c1 [Compound 68] | 1320 | 3.25 | – | – |
| OC(CCCN1CCN(c2ncc(F)cn2)CC1)c1ccc(F)cc1 (stereo not drawn) [BMY-14802, reference compound] | – | – | – | Ki [4, 10]: 133 nM |
| CC(C(O)c1ccc(O)cc1)N1CCC(Cc2ccccc2)CC1 (stereo not drawn) [Ifenprodil, reference compound] | – | – | 2.39 | – |
| c1ccc(CCCCCNCC2CCCCC2)cc1 [Compound 93] | 597 | 1.4 | – | change in sigma affinity, words ([2]; Example 6): binds with twice the affinity; Ki [2]: 1.2 nM |
| C=CCN1CC[C@@]2(C)c3cc(O)ccc3C[C@@H]1[C@@H]2C [(-)SKF 10047, reference compound] | – | – | 9130 | – |
| O=C(c1ccccc1)N1CCN(CCCCc2ccccc2)CC1 [Compound 80, N-4(4-phenylbutyl)-N'-benzoylpiperazine] | – | – | – | Ki [3, 8]: 71.8 nM; Ki [4, 10]: 965 nM |
| CC(Cc1ccc(OCc2ccccc2)cc1)NCCCc1ccccc1 (stereo not drawn) [Compound 85] | 1150 | 28.1 | – | – |
| CN1CCN(CCCN2c3ccccc3Sc3ccc(C(F)(F)F)cc32)CC1 [Trifluperizine, reference compound] | – | – | 161 | Ki [3, 6]: 561 nM; S1/S2 Ratio ([3]; Table 11, sigma-1/sigma-2): 3.497 |
| CCCN1CCC[C@H](c2cccc(O)c2)C1 [(+)3-PPP, reference compound] | – | – | 493 | Ki [3, 6]: 47.7 nM; S1/S2 Ratio ([3]; Table 11, sigma-1/sigma-2): 0.097 |
| CC(C)N(CCNC(=O)CN1CCCC1=O)C(C)C [Pramiracetam, reference compound] | – | – | 10000 | Ki [3, 6]: 10000 nM; S1/S2 Ratio ([3]; Table 11, sigma-1/sigma-2): 1.000 |
| CN(CCCCCc1ccccc1)Cc1ccccc1 [Compound 137, N-Benzyl-N-methyl-5-phenylpentylamine] | – | 1.11 | – | Ki [4, 10]: 12.5 nM; IC50 ([4]; Table 18, read-out: IC50 (nM) at sigma-2): 12 nM |
| c1ccc2cc(N3CCNCC3)ccc2c1 [Compound 60, N-(2-Naphthyl)piperazine] | – | – | – | Ki [3, 8]: 220 nM; Ki [4, 10]: 5600 nM |
| C[C@@H]1CN(CCCn2c3ccccc3c3ccccc32)C[C@H](C)N1 [Rimoazole, reference compound] | – | – | 265 | – |
| c1ccc(CCCCNCCCc2ccccc2)cc1 [Compound 72] | 11.3 | 7.23 | – | – |
| C[C@@H](Cc1ccccc1)N(C)CCc1ccccc1 [Compound 36] | – | – | – | Ratio 5-HT1A /σ ([1]; Table 5): 239; IC50 ([1]; Table 5, read-out: 5-HT1A IC50): 1630 nM |
| CC(C)(C)[C@]1(O)CCN2C[C@H]3c4ccccc4CCc4cccc(c43)[C@@H]2C1 [(+)Butaclamol, reference compound] | – | – | 1400 | – |
| OCCN1CCN(CCCN2c3ccccc3Sc3ccc(Cl)cc32)CC1 [Perphenazine, reference compound] | – | – | 80.4 | Ki [3, 6]: 25.1 nM; S1/S2 Ratio ([3]; Table 11, sigma-1/sigma-2): 0.312 |
| CCCc1ccc(CC(C)N(C)CCCc2ccccc2)cc1 (stereo not drawn) [Compound 86] | 502 | 2.43 | – | – |
| C[C@@H](Cc1ccccc1)N(C)CCCCCc1ccccc1 [Compound 69] | 891 | 2.25 | – | – |
